The subject of one assay is A549 cells. Briefly: Sphere formation assay in alginate-based 3D cell culture, IC50 compared with clonogenic assay in conventional 2D culture. Conditions: for IC50 in the alginate-based 3D cell culture relative to the conventional 2D culture: 3D sphere formation vs 2D clonogenic assay, FIG. 4A; for fold change resistance (IC50 in alginate-based 3D cell culture divided by IC50 in conventional 2D culture): FIG. 4B. The text has this:
Without limiting the scope of the present disclosure or appended claims with any particular theory or hypothesis, since the stemness is associated with a resistance to chemotherapy, cells cultured in an alginate-based 3D cell culture may be more resistant to chemotherapy drugs and more sensitive to stemness-targeting drugs than cells cultured in traditional 2D cultures. To evaluate the response of cells to drugs, the IC50 values of cells in both the alginate-based 3D and the conventional 2D cell cultures were determined. FIG. 4A summarizes the IC50 of the CSC-targeting therapies (BBI-608, BBI-503), chemotherapies (doxorubicin and gemcitabine), and a targeted therapy (sunitinib) with respect to A549 cells in the alginate-based 3D cell culture and the traditional 2D culture. […] To compare the effect of culturing cells in the alginate-based 3D and the conventional 2D cell cultures on IC50, the fold change in resistance can be calculated by obtaining the ratio of IC50 value in the alginate-based 3D cell culture to the IC50 value in the conventional 2D culture.
Into each well of a flat bottom-96 well plate, 30 μL suspension of the cells in alginate solution was dispensed. 9 μL of crosslinking solution was then added to each well to form alginate gels and thus embed A549 cells into the gel matrix. The plates were then incubated for 15 minutes at 37° C. to ensure a complete gelling of alginate, and then cultured in Prime XV media overnight. After the overnight culture, the cells were treated with various concentrations of BBI-608, BBI-503, sunitinib, doxorubicin, or gemcitabine for 24 h. The plates were then washed and cultured in fresh media for an additional 11 days before imaging the cultures with Celigo Imaging Cytometer (Nexcelcom Bioscience, Lawrence, Mass.). The number of spheres were counted, and used to calculate the IC50 values using Prism 5 (GraphPad).
A549 cells were plated in 6-well plates (1×10^3 A549 cells/well). After an overnight incubation in DMEM media, the cells were treated with various concentrations of BBI-608 for 24h, or BBI-503, sunitinib, doxorubicin, and gemcitabine for 72 hours. The plates were washed, and cultured in fresh media for an additional 6 days before staining the colonies with Giemsa Stain (Sigma, St. Louis, Mo.). The colonies were imaged using a ChemiDoc™ MP Imaging System (BioRad), and the number of colonies were counted using ImageJ (National Institutes of Health, Bethsada, Md.), and the IC50 values calculated using Prism 5.

The next assay deals with A549 cellular spheroids. Briefly: Efficacy on pre-formed cellular spheroids in alginate-based 3D cell culture (CellTox dead stain). The conditions noted are these: pre-formed A549 spheroids (11 days), concentrations near IC50 values, 7 days after drug treatment; FIG. 5. The procedure: To evaluate the efficacy of the drugs in diffusion-limited environments, A549 cells were embedded and cultured for 11 days before any drug treatment (BBI-608, BBI-503, gemcitabine, or doxorubicin). Spheroids of A549 cells were pre-formed from single cells embedded in an alginate-based 3D cell culture for 11 days. The pre-formed spheroids were treated with drugs (0.3 μM BBI-608, 2.5 μM BBI-503, 30 μM sunitinib, 4 μM doxorubicin, 0.5 μM gemcitabine) and incubated with the dead stain CellTox Dye. Micrographs were taken 7 days after the drug treatments.
In a 6-well plate, A549 cells were embedded in an alginate-based 3D cell culture and cultured for 11 days before addition of BBI-608, BBI-503, sunitinib, doxorubicin, and gemcitabine. Cells were cultured for an additional 7 days before staining them with CellTox™ Green Dye (Promega) to stain the dead cells. Images of the stained samples were taken using an EVOS fluorescence microscope (Life Technologies, Carlsbad, Calif.).

With `COc1cccc2c1C(=O)c1c(O)c3c(c(O)c1C2=O)C[C@@](O)(C(=O)CO)C[C@@H]3O[C@H]1C[C@H](N)[C@H](O)[C@H](C)O1` [doxorubicin, reference compound], the “IC50 in the alginate-based 3D cell culture relative to the conventional 2D culture” value in the assay on A549 cells is given as “greater”.

In the case of `CCN(CC)CCNC(=O)c1c(C)[nH]c(/C=C2\C(=O)Nc3ccc(-c4csc(-c5ccccc5)n4)cc32)c1C` [BBI-503], the “cell death, share of spheroids” value in the assay with A549 cellular spheroids is reported as “about 90%”. For the same compound, in the assay with A549 cells, the “IC50 in the alginate-based 3D cell culture relative to the conventional 2D culture” value is “lower” and the “fold change resistance (IC50 in alginate-based 3D cell culture divided by IC50 in conventional 2D culture)” value is recorded as “less than single-fold”.

For `CC(=O)c1cc2c(o1)C(=O)c1ccccc1C2=O` [BBI-608, 2-acetylnaphtho[2,3-b]furan-4,9-dione], in the assay with A549 cellular spheroids, the “cell death, share of spheroids” value is reported as “about 90%”. Further, in the assay with A549 cells, the “IC50 in the alginate-based 3D cell culture relative to the conventional 2D culture” value was “lower” and the “fold change resistance (IC50 in alginate-based 3D cell culture divided by IC50 in conventional 2D culture)” value was “less than single-fold”.

`Nc1ccn([C@@H]2O[C@H](CO)[C@@H](O)C2(F)F)c(=O)n1` [gemcitabine, reference compound]: the “IC50 in the alginate-based 3D cell culture relative to the conventional 2D culture” value in the assay with A549 cells is “greater”.

Values taken from US20190249134A1, “CELL CULTURES AND USE THEREOF” (Boston Biomedical, Inc., priority 2016, published 2019).
